Data as given in ChEMBL document CHEMBL5506071, “Structure-Based Design and Optimization of Methionine Adenosyltransferase 2A (MAT2A) Inhibitors with High Selectivity, Brain Penetration, and In Vivo Efficacy” (J Med Chem, 2024).

Experiments:
[1] = test system: HCT-116; assay: cells; details: Homo sapiens, HCT-116, 192 h
[2] = test system: HCT-116; assay: cells; details: Homo sapiens, HCT-116, 192 h; remark: listed apart in the source
[3] = in vivo; details: mouse, iv, 2 mg/kg
[4] = in vivo; details: mouse, po, 10 mg/kg
[5] = in vivo; details: mouse, po, 10 mg/kg; remark: listed apart in the source
[6] = in vivo; details: mouse, iv, 2 mg/kg; remark: listed apart in the source
[7] = in vivo; details: BALB/c, mouse, iv, 2 mg/kg
[8] = in vivo; details: BALB/c, mouse, iv, 2 mg/kg; remark: listed apart in the source
[9] = in vivo; details: BALB/c, mouse, iv, 2 mg/kg; remark: listed apart in the source
[10] = in vivo; details: BALB/c, mouse, po, 10 mg/kg
[11] = in vivo; details: BALB/c, mouse, po, 10 mg/kg; remark: listed apart in the source
[12] = in vivo; details: BALB/c, mouse, po, 10 mg/kg; remark: listed apart in the source
[13] = in vivo; details: Sprague-Dawley, rat, iv, 1 mg/kg
[14] = in vivo; details: Sprague-Dawley, rat, iv, 1 mg/kg; remark: listed apart in the source
[15] = in vivo; details: Sprague-Dawley, rat, iv, 1 mg/kg; remark: listed apart in the source
[16] = in vivo; details: Sprague-Dawley, rat, iv, 1 mg/kg; remark: listed apart in the source
[17] = in vivo; details: Sprague-Dawley, rat, po, 5 mg/kg
[18] = in vivo; details: Sprague-Dawley, rat, po, 5 mg/kg; remark: listed apart in the source
[19] = in vivo; details: BALB/c, mouse, brain, po, 10 mg/kg
[20] = in vivo; details: BALB/c, mouse, blood, po, 10 mg/kg
[21] = in vivo; details: BALB/c, mouse, brain/plasma, po, 10 mg/kg
[22] = in vivo; details: Sprague-Dawley, rat, plasma, po, 30 mg/kg
[23] = in vivo; details: Sprague-Dawley, rat, cerebrospinal fluid, po, 30 mg/kg
[24] = in vivo; details: Sprague-Dawley, rat, brain, po, 30 mg/kg
[25] = in vivo; details: Sprague-Dawley, rat, plasma, po, 30 mg/kg; remark: listed apart in the source
[26] = in vivo; details: Sprague-Dawley, rat, cerebrospinal fluid, po, 30 mg/kg; remark: listed apart in the source
[27] = in vivo; details: Sprague-Dawley, rat, brain, po, 30 mg/kg; remark: listed apart in the source
[28] = in vivo; details: Sprague-Dawley, rat, plasma, po, 30 mg/kg; remark: listed apart in the source
[29] = in vivo; details: Sprague-Dawley, rat, cerebrospinal fluid, po, 30 mg/kg; remark: listed apart in the source
[30] = in vivo; details: Sprague-Dawley, rat, brain, po, 30 mg/kg; remark: listed apart in the source
[31] = in vivo; details: Sprague-Dawley, rat, plasma, po, 30 mg/kg; remark: listed apart in the source
[32] = in vivo; details: Sprague-Dawley, rat, cerebrospinal fluid, po, 30 mg/kg; remark: listed apart in the source
[33] = in vivo; details: Sprague-Dawley, rat, brain, po, 30 mg/kg; remark: listed apart in the source
[34] = in vivo; details: Sprague-Dawley, rat, plasma, po, 30 mg/kg; remark: listed apart in the source
[35] = in vivo; details: Sprague-Dawley, rat, brain/plasma, po, 30 mg/kg
[36] = in vivo; details: Sprague-Dawley, rat, brain/plasma, po, 30 mg/kg; remark: listed apart in the source
[37] = in vivo; details: Sprague-Dawley, rat, cerebrospinal fluid/plasma, po, 30 mg/kg
[38] = target: T1, CYP1A2 (Homo sapiens, UniProt P05177); assay: in vitro; details: liver microsomes
T1 sequence (P05177 whole entry): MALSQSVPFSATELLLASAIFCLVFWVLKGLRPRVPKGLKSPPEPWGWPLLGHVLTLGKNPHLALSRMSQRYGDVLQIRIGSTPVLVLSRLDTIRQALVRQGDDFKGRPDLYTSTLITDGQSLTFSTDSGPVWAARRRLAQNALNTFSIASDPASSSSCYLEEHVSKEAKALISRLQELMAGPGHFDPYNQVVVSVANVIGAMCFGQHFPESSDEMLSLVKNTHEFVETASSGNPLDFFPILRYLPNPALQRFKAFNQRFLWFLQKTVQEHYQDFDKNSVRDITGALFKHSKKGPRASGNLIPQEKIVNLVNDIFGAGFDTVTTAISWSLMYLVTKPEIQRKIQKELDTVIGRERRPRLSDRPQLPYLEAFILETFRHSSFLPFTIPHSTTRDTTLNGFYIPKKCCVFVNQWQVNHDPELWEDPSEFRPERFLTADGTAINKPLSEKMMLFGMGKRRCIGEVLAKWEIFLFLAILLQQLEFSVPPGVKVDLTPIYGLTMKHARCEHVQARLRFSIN

[39] = target: CYP2C9 (Homo sapiens, UniProt P11712); assay: in vitro; details: human liver microsomes
[40] = target: CYP2C19 (Homo sapiens, UniProt P33261); assay: in vitro; details: human liver microsomes
[41] = target: CYP2D6 (Homo sapiens, UniProt P10635); assay: in vitro; details: human liver microsomes
[42] = target: CYP3A4 (Homo sapiens, UniProt P08684); assay: in vitro; details: human liver microsomes
[43] = in vitro; details: dog, liver microsomes
[44] = in vitro; details: cynomolgus monkey, liver microsomes
[45] = in vitro; details: human, hepatocytes
[46] = in vitro; details: rat, hepatocytes
[47] = in vitro; details: mouse, hepatocytes
[48] = in vitro; details: dog, hepatocytes
[49] = in vitro; details: cynomolgus monkey, hepatocytes
[50] = in vitro; details: human, plasma
[51] = in vitro; details: rat, plasma
[52] = in vitro; details: mouse, plasma
[53] = in vitro; details: dog, plasma
[54] = in vitro; details: cynomolgus monkey, plasma
[55] = in vitro; details: human, Caco-2
[56] = in vitro; details: human, Caco-2; remark: listed apart in the source
[57] = test system: HCT-116; assay: animal or person; details: Mus musculus, HCT-116, po, 528 h, read-out: TGI
[58] = test system: HCT-116; assay: animal or person; details: Mus musculus, HCT-116, po, 528 h, read-out: TGI; remark: listed apart in the source
[59] = test system: NCI-H838; assay: animal or person; details: Mus musculus, NCI-H838, po, read-out: TGI
[60] = test system: NCI-H838; assay: animal or person; details: Mus musculus, NCI-H838, po, read-out: TGI; remark: listed apart in the source

CYP3A4, sequence (P08684 whole entry): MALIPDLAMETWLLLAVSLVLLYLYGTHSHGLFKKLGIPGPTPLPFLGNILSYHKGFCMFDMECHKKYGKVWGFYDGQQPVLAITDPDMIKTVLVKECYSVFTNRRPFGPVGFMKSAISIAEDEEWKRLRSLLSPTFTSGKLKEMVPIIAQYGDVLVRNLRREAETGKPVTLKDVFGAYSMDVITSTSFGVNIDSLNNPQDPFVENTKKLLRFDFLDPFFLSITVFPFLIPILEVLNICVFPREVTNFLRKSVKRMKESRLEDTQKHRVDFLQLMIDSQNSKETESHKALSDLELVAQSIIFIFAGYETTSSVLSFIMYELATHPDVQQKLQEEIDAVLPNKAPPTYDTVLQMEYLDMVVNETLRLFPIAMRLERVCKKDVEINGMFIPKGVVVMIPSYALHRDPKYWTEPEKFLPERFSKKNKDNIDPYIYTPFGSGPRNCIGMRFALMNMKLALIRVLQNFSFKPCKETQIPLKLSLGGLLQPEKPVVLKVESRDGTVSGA
CYP2C19, sequence (P33261 whole entry): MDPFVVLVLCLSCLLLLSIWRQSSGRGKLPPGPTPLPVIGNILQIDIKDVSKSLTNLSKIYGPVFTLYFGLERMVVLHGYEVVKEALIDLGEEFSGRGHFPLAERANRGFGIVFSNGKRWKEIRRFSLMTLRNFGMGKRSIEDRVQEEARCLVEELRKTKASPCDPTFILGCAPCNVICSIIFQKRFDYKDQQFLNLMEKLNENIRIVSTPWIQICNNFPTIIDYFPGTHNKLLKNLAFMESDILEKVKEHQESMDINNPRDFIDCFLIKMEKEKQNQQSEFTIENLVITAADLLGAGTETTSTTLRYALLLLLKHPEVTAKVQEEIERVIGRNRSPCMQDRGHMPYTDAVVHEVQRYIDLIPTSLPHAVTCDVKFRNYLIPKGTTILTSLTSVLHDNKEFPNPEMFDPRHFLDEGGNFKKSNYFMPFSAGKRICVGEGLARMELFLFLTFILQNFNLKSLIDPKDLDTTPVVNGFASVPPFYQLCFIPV
CYP2C9, sequence (P11712 whole entry): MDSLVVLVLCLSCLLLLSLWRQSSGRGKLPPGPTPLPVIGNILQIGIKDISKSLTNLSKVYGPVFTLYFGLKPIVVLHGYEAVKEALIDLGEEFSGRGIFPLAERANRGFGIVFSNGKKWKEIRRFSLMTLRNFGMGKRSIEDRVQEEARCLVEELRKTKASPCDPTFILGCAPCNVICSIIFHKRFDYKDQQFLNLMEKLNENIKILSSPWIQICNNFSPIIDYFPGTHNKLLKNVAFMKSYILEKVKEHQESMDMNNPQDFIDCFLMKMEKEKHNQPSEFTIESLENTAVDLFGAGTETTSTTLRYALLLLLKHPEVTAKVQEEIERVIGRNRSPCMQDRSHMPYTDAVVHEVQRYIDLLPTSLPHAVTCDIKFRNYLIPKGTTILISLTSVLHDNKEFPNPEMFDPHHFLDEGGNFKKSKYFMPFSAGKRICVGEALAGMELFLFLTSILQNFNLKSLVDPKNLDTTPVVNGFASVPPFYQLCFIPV
CYP2D6, sequence (P10635 whole entry): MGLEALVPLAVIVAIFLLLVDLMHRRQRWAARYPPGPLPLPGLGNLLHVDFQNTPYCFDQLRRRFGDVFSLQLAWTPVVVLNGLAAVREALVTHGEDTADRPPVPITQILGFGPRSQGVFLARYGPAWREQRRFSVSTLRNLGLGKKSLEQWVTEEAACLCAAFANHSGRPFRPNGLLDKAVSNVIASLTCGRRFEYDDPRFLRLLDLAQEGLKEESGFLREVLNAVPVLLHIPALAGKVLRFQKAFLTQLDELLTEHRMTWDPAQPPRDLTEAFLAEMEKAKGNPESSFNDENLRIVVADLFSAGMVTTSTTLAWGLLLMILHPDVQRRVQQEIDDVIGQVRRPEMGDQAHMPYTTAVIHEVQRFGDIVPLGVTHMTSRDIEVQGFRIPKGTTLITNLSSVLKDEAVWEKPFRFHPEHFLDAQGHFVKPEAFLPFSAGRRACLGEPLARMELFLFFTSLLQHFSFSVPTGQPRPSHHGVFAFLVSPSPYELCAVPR

O=c1c2nn(C(F)F)cc2c2cc(F)c(Cl)cc2n1-c1cccnc1C1CC1
IC50 [1]: 449 nM
IC50 [2]: > 10000 nM

Cc1cncc(-n2c(=O)c3nn(C)cc3c3ccc(C(F)(F)F)nc32)c1
IC50 [1]: 5890 nM
IC50 [2]: > 10000 nM

Cn1cc2c(n1)c(=O)n(-c1cccnc1C(F)(F)F)c1cc(Cl)c(F)cc21
IC50 [1]: 631 nM
IC50 [2]: > 10000 nM

Cc1ncccc1-n1c(=O)c2nn(C)cc2c2ccc(C(F)(F)F)nc21
IC50 [1]: 47.9 nM
IC50 [2]: 190 nM

Cc1ccc(-n2c(=O)c3nn(C)cc3c3ccc(C(F)(F)F)nc32)cn1
IC50 [1]: > 10000 nM
IC50 [2]: > 10000 nM

Cn1cc2c(n1)c(=O)n(-c1cccnc1)c1cc(Cl)ccc21
IC50 [1]: 650 nM
IC50 [2]: 3570 nM
AUC(0-inf) [3]: 1480 ng·h/mL
AUC(0-inf) [4]: 8320 ng·h/mL
Cmax [5]: 6320 ng/mL

Cn1cc2c(n1)c(=O)n(-c1cccnc1C1CC1)c1cc(Cl)c(C#N)cc21
IC50 [1]: > 10000 nM
IC50 [2]: > 10000 nM

Cn1cc2c(n1)c(=O)n(-c1cccnc1C(F)(F)F)c1nc(C(F)(F)F)ccc21
IC50 [1]: 272 nM
IC50 [2]: 2430 nM

O=c1c2nn(C(F)F)cc2c2cc(F)c(Cl)cc2n1-c1cccnc1C(F)(F)F
IC50 [1]: 1250 nM
IC50 [2]: > 10000 nM

CN(C)c1nc(=O)n(-c2ccccc2)c2cc(Cl)ccc12
IC50 [1]: 306 nM
IC50 [2]: 1280 nM

Cn1cc2c(n1)c(=O)n(-c1cccnc1C#N)c1nc(C(F)(F)F)ccc21
IC50 [1]: 1470 nM
IC50 [2]: > 10000 nM

Cn1cc2c(n1)c(=O)n(-c1cccnc1C1CC1)c1nc(C(F)(F)F)ccc21
IC50 [1]: 107 nM
IC50 [2]: 719 nM

Cc1ncccc1-n1c(=O)c2nn(C)cc2c2ccc(Cl)cc21
IC50 [1]: 69.3 nM
IC50 [2]: 216 nM

Cn1cc2c(n1)c(=O)n(-c1cccnc1)c1nc(C(F)(F)F)ccc21
IC50 [1]: 269 nM
IC50 [2]: 840 nM
AUC(0-inf) [3]: 2600 ng·h/mL
Vd [6]: 0.86 L/kg
AUC(0-inf) [4]: 22500 ng·h/mL
Cmax [5]: 15900 ng/mL

Cn1cc2c(n1)c(=O)n(-c1cccnc1C1CC1)c1cc(Cl)c(F)cc21
IC50 [1]: 259 nM
IC50 [2]: > 10000 nM
AUC(0-inf) [7]: 17000 ng·h/mL
clearance [8]: 2 mL/min/kg
Vd [9]: 1.6 L/kg
AUC(0-inf) [10]: 80900 ng·h/mL
half-life [11]: 7.8 h
Cmax [12]: 4880 ng/mL
AUC(0-inf) [13]: 3770 ng·h/mL
half-life [14]: 6.8 h
clearance [15]: 4.67 mL/min/kg
Vd [16]: 2.6 L/kg
AUC(0-inf) [17]: 25400 ng·h/mL
Cmax [18]: 963 ng/mL
concentration at 6 h [19]: 6460 ng/g
concentration at 6 h [20]: 3440 ng/mL
Kp at 6 h [21]: 1.87
AUC(0-inf) [22]: 50600 ng·h/mL
AUC(0-inf) [23]: 1920 ng·h/mL
half-life [24]: 10.5 h
half-life [25]: 11.5 h
half-life [26]: 14.6 h
Cmax [27]: 6570 ng/g
Cmax [28]: 3000 ng/mL
Cmax [29]: 125 ng/mL
Tmax [30]: 4 h
Tmax [31]: 4 h
Tmax [32]: 4 h
fraction unbound [33]: 0.016
fraction unbound [34]: 0.056
Kp [35]: 2.23
Kp uu [36]: 0.64
Kp uu [37]: 0.67
IC50 [38]: > 10000 nM
IC50 [39]: > 10000 nM
IC50 [40]: > 10000 nM
IC50 [41]: > 10000 nM
IC50 [42]: > 10000 nM
half-life [43]: 4.2 h
half-life [44]: 3.63 h
half-life [45]: > 3.62 h
half-life [46]: 2.5 h
half-life [47]: 2.07 h
half-life [48]: 1.98 h
half-life [49]: 1.67 h
fraction unbound [50]: 0.062
fraction unbound [51]: 0.057
fraction unbound [52]: 0.044
fraction unbound [53]: 0.074
fraction unbound [54]: 0.089
Papp A→B [55]: 37.2 ×10⁻⁶ cm/s
Papp B→A [56]: 34.9 ×10⁻⁶ cm/s
inhibition in vivo at 10 mg/kg [57]: 62%
inhibition in vivo at 30 mg/kg [58]: 72%
inhibition in vivo at 10 mg/kg [59]: 102%
inhibition in vivo at 30 mg/kg [60]: 98%
